# Reference: publication PMC12196348, “^99mTc-Labeled Diarylpyrazoles for Single-Emission Computer Tomography Imaging of Neurotensin Receptor-Positive Tumors: A Comparative Preclinical Study” (Pharmaceutics, 2025)
# Where “and” joins values, the source holds several entries; their conditions need not be identical. Identical values can stand only once. Like-named read-outs stand apart in the source and are kept apart here.
# How the values were obtained:
# human NTSR2 = biological target: T1, human NTSR2 (Homo sapiens, UniProt O95665); assay: NTSR2 competition binding, membranes of transiently transfected HEK 293T cells, [3H]NT(8-13); details: human NTSR2, HEK 293T membranes, [3H]NT(8-13) 0.50 nM; mean ± SEM
# T1 construct: host or cells: HEK 293T cells, transient transfection
# T1 sequence (O95665 whole entry): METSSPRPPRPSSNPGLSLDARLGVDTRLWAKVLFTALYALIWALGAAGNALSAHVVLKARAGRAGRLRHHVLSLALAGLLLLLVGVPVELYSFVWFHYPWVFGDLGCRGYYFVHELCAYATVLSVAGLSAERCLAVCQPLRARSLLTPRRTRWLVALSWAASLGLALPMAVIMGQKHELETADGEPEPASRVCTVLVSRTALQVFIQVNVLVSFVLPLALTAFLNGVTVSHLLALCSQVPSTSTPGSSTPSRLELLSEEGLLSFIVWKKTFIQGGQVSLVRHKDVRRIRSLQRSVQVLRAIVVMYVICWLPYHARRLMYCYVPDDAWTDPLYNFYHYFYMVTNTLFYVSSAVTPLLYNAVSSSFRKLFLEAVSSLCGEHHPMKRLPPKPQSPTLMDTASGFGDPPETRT
# Protocol: (§1) Radioligand binding experiments with the NTSR1 and NTSR2 receptor subtypes were performed as described previously. […] NTSR2 binding was measured using homogenates of membranes from HEK 293T cells, which were transiently transfected with DNA encoding the human NTSR2 (cDNA Resource Center, Bloomsberg, PA, USA) using the Mirus TransIT-293 transfection reagent (Peqlab, Erlangen, Germany). […] Nonspecific binding was determined in the presence of 10 μM NT(8-13), protein concentration was determined by the method of Lowry using bovine serum albumin as a standard. A data analysis of the radioligand displacement curves was accomplished by non-linear regression analysis using the algorithms in PRISM 9.0 (GraphPad Software, San Diego, CA, USA). EC50 values derived from the resulting dose response curves were transformed into the corresponding Ki values applying the equation of Cheng and Prusoff.
# human NTSR1 = human NTSR1 (Homo sapiens, UniProt P30989); assay: NTSR1 competition binding, membranes of CHO cells stably expressing human NTSR1, [3H]neurotensin; details: [3H]neurotensin 0.50 nM, mean ± SEM ([natRe]2: ± SD, n = 2)
# human NTSR1, sequence (P30989 whole entry): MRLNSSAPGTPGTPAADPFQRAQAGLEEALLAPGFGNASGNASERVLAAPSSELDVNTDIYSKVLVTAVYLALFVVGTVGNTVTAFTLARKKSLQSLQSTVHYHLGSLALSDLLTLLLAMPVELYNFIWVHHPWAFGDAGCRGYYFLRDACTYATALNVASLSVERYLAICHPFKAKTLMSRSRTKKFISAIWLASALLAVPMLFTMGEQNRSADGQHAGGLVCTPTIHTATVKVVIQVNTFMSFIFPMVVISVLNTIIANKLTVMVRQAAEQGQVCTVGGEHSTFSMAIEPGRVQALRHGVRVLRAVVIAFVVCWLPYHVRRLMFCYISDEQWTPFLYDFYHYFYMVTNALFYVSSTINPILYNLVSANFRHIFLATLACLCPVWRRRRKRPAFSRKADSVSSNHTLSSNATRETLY
# Protocol: as §1
# [1] = test system: NTSR1-positive HT-29 cells; assay: Competitive cellular uptake assay; format: cell-based; details: Homo sapiens, 37 °C, 1 h
# Protocol: For the determination of the IC50 values, 8–10 concentrations of FAUC468 were used. The HT-29 cells were seeded on the day of the experiment in a 96-well-plate (~500.000 cells per well in 200 µL cell medium) and were incubated in a humidified atmosphere at 37 °C containing 5% CO2. Subsequently, the 96-well-plate was centrifuged at 850 rpm for 2 min following aspiration of the cell medium. The cells were washed with cell medium (200 µL), the plate was centrifuged at 850 rpm for 2 min, and the supernatant was aspirated. The incubation solutions (0.009–900 nM FAUC468 in 90 µL cell medium per well) and the respective radiotracer (10 µL, 100 kBq per well) were given to the wells, and the plates were incubated at 37 °C for 1 h. After the incubation time, the plate was centrifuged at 850 rpm for 2 min. The supernatant was removed, followed by two washing steps with the cell medium (200 µL) and PBS (200 µL). Sodium hydroxide solution (200 µL, 2 M, 37 °C) was added, and after 7 min, solutions of the cell homogenates were transferred into tubes, which were measured for radioactivity in a γ-counter (Wallac Wizard, Perkin Elmer, Waltham, MA, USA). […]
# HT-29 cells = details: cited from earlier work
# NTSR2 = biological target: NTSR2; set-up: method as in PMID 33268796; details: cited from earlier work
# NTSR1 = biological target: NTSR1; set-up: method as in PMID 33268796; details: cited from earlier work
molecule,measurement,setting,value
"COc1cccc(OC)c1-c1cc(C(=O)NC2(C(=O)O)C3CC4CC(C3)CC2C4)nn1-c1ccc(-c2cn(CCCN(C)CCCNC(=O)c3ccc(NN)nc3)nn2)cc1C(C)C (centres unmarked) [Compound 5, 2-(5-(2,6-Dimethoxyphenyl)-1-(4-(1-(3-((3-(6-hydrazineylnicotinamido)propyl)-(methyl)amino)propyl)-1H-1,2,3-triazol-4-yl)-2-isopropylphenyl)-1H-pyrazole-3-carboxamido)-adamantane-2-carboxylic Acid]",Ki,human NTSR2,270 ± 94 nM
"COc1cccc(OC)c1-c1cc(C(=O)NC2(C(=O)O)C3CC4CC(C3)CC2C4)nn1-c1ccc(-c2cn(CCCN(C)CCCNC(=O)CCn3cc(CC(N)C(=O)O)nn3)nn2)cc1C(C)C (centres unmarked) [Compound 6, 2-(1-(4-(1-(3-((3-(3-(4-(2-Amino-2-carboxyethyl)-1H-1,2,3-triazol-1-yl)-propanamido)propyl)(methyl)amino)propyl)-1H-1,2,3-triazol-4-yl)-2-isopropylphenyl)-5-(2,6-dimethoxyphenyl)-1H-pyrazole-3-carboxamido)adamantane-2-carboxylic Acid]",Ki,human NTSR1,0.3 nM and 0.32 nM
same,Ki,human NTSR2,85 ± 13 nM
COc1cccc(OC)c1-c1cc(C(=O)NC2(C(=O)O)C3CC4CC(C3)CC2C4)nn1-c1ccc(-c2cn(CCCN(C)CCCNC(=O)CN3CCN(CC(=O)O)CCN(CC(=O)O)CCN(CC(=O)O)CC3)nn2)cc1C(C)C (centres unmarked) [FAUC468],IC50,"[1]; radiotracer [99mTc]1, read-out: IC50 of FAUC468 for the displacement of [99mTc]1",1.93 nM
same,IC50,"[1]; radiotracer [99mTc]2, read-out: IC50 of FAUC468 for the displacement of [99mTc]2",3.12 nM
same,Ki,human NTSR1,1.9 ± 0.7 nM
same,Ki,human NTSR2,100 ± 3 nM
COc1cccc(OC)c1-c1cc(C(=O)NC2(C(=O)O)C3CC4CC(C3)CC2C4)nn1-c1ccnc2cc(Cl)ccc12 (centres unmarked) [SR 48692],IC50,HT-29 cells; [125I-Tyr3]NT(8-13) as radioligand,30 nM
COc1cccc(OC)c1-c1cc(C(=O)NC2(C(=O)O)C3CC4CC(C3)CC2C4)nn1-c1ccc(C(=O)N(C)CCCN(C)C)cc1C(C)C (centres unmarked) [SR 142948A],IC50,HT-29 cells,0.32 nM
NTS: 13-amino-acid peptide originally isolated from bovine hypothalami,Ki,NTSR2,5 to 7 nM
same,Ki,NTSR1,0.15 to 0.5 nM
